Results from PubChem BioAssay (NCI).
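Where inhibition never reached the appropriate level, the endpoint shown equals the highest concentration tested. Otherwise, values were interpolated linearly from a five-concentration, 48-hour dose response in 96-well plates. At the TGI there is no net growth.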

Assays:
Experiment in all cases: growth of human tumour cells (NCI), 48 h
[1] = tested on: HOP-92 NSCLC
[2] = tested on: CAKI-1 renal
[3] = tested on: UACC-62 melanoma
[4] = tested on: 786-0 renal
[5] = tested on: DU-145 prostate
[6] = tested on: OVCAR-8 ovarian
[7] = tested on: UO-31 renal
[8] = tested on: LOX IMVI melanoma
[9] = tested on: NCI/ADR-RES ovarian
[10] = tested on: NCI-H522 lung
[11] = tested on: BT-549 breast
[12] = tested on: SK-MEL-2 melanoma
[13] = tested on: TK-10 renal
[14] = tested on: SNB-75 CNS
[15] = tested on: PC-3 prostate
[16] = tested on: HL-60(TB) leukemia
[17] = tested on: SN12C renal
[18] = tested on: M14 melanoma
[19] = tested on: RXF 393 renal
[20] = tested on: SR leukemia
[21] = tested on: ACHN renal
[22] = tested on: SF-295 CNS
[23] = tested on: MOLT-4 leukemia
[24] = tested on: OVCAR-3 ovarian
[25] = tested on: OVCAR-5 ovarian
[26] = tested on: SK-MEL-5 melanoma
[27] = tested on: SF-539 CNS
[28] = tested on: KM12 colon
[29] = tested on: U251 CNS
[30] = tested on: SNB-19 CNS
[31] = tested on: MCF7 breast
[32] = tested on: NCI-H226 lung
[33] = tested on: MDA-MB-231 breast
[34] = tested on: MDA-N
[35] = tested on: T-47D breast
[36] = tested on: HOP-62 NSCLC
[37] = tested on: MALME-3M melanoma
[38] = tested on: SK-OV-3 ovarian
[39] = tested on: HCC-2998 colon
[40] = tested on: HT29 colon
[41] = tested on: HCT-15 colon
[42] = tested on: SK-MEL-28 melanoma
[43] = tested on: RPMI-8226 leukemia
[44] = tested on: OVCAR-4 ovarian
[45] = tested on: A549 NSCLC
[46] = tested on: COLO 205 colon
[47] = tested on: CCRF-CEM leukemia
[48] = tested on: IGROV1 ovarian
[49] = tested on: SF-268 CNS
[50] = tested on: MDA-MB-435
[51] = tested on: K-562 leukemia
[52] = tested on: HCT-116 colon
[53] = tested on: HS 578T breast
[54] = tested on: EKVX NSCLC
[55] = tested on: UACC-257 melanoma
[56] = tested on: NCI-H460 lung
[57] = tested on: NCI-H23 lung
[58] = tested on: SW-620 colon
[59] = tested on: A498 renal

Nc1[nH]c(=O)nc2snnc12
TGI [1]: > 100 µM | TGI [2]: > 28.8 µM | TGI [3]: > 78.3 µM | TGI [4]: > 100 µM | TGI [5]: > 100 µM | TGI [6]: > 100 µM | TGI [7]: > 31.2 µM | TGI [8]: 65.2 µM | TGI [9]: > 100 µM | TGI [10]: > 100 µM | TGI [11]: > 100 µM | TGI [12]: 14.4 µM | TGI [13]: > 83.9 µM | TGI [14]: > 100 µM | TGI [15]: > 100 µM | TGI [16]: > 100 µM | TGI [17]: > 100 µM | TGI [18]: > 100 µM | TGI [19]: > 26.8 µM | TGI [20]: > 100 µM | TGI [21]: > 100 µM | TGI [22]: > 100 µM | TGI [23]: > 100 µM | TGI [24]: > 100 µM | TGI [25]: > 100 µM | TGI [26]: > 100 µM | TGI [27]: > 100 µM | TGI [28]: > 100 µM | TGI [29]: > 100 µM | TGI [30]: > 100 µM | TGI [31]: > 100 µM | TGI [32]: > 100 µM | TGI [33]: > 100 µM | TGI [34]: > 100 µM | TGI [35]: > 100 µM | TGI [36]: > 100 µM | TGI [37]: > 100 µM | TGI [38]: > 100 µM | TGI [39]: > 100 µM | TGI [40]: > 100 µM | TGI [41]: > 100 µM | TGI [42]: 96.9 µM | TGI [43]: > 100 µM | TGI [44]: > 100 µM | TGI [45]: > 100 µM | TGI [46]: > 100 µM | TGI [47]: > 100 µM | TGI [48]: > 100 µM | TGI [49]: > 51.7 µM | TGI [50]: > 100 µM | TGI [51]: > 39.7 µM | TGI [52]: > 100 µM | TGI [53]: > 100 µM | TGI [54]: > 100 µM | TGI [55]: > 100 µM | TGI [56]: > 100 µM | TGI [57]: > 100 µM | TGI [58]: > 100 µM

CC(=O)c1cccc(NC(=O)C(=O)c2c(O)c3ccccc3oc2=O)c1
TGI [1]: > 100 µM | TGI [2]: > 100 µM | TGI [3]: > 100 µM | TGI [4]: > 100 µM | TGI [6]: > 100 µM | TGI [7]: > 100 µM | TGI [8]: > 100 µM | TGI [9]: > 100 µM | TGI [10]: > 100 µM | TGI [11]: > 100 µM | TGI [13]: > 100 µM | TGI [14]: > 100 µM | TGI [15]: > 100 µM | TGI [17]: > 100 µM | TGI [18]: > 100 µM | TGI [19]: > 100 µM | TGI [20]: > 100 µM | TGI [21]: > 100 µM | TGI [22]: > 100 µM | TGI [23]: > 100 µM | TGI [24]: > 100 µM | TGI [25]: > 100 µM | TGI [26]: > 100 µM | TGI [27]: > 100 µM | TGI [28]: > 100 µM | TGI [29]: > 100 µM | TGI [30]: > 100 µM | TGI [31]: > 100 µM | TGI [32]: > 100 µM | TGI [33]: > 100 µM | TGI [34]: > 100 µM | TGI [35]: > 100 µM | TGI [36]: > 100 µM | TGI [37]: > 100 µM | TGI [59]: > 100 µM | TGI [38]: > 100 µM | TGI [39]: > 100 µM | TGI [40]: > 100 µM | TGI [41]: > 100 µM | TGI [42]: > 100 µM | TGI [43]: > 100 µM | TGI [44]: > 100 µM | TGI [45]: > 100 µM | TGI [47]: > 100 µM | TGI [48]: > 100 µM | TGI [49]: > 100 µM | TGI [50]: > 100 µM | TGI [51]: > 100 µM | TGI [52]: > 100 µM | TGI [53]: > 100 µM | TGI [54]: > 100 µM | TGI [55]: > 100 µM | TGI [56]: > 100 µM | TGI [57]: > 100 µM | TGI [58]: > 100 µM

CC1CN=C(Nc2cccc(F)c2)S1 (configuration not stated)
TGI [1]: > 100 µM | TGI [2]: > 100 µM | TGI [3]: > 100 µM | TGI [4]: > 100 µM | TGI [5]: > 100 µM | TGI [6]: > 100 µM | TGI [7]: > 100 µM | TGI [8]: > 100 µM | TGI [9]: > 100 µM | TGI [10]: > 100 µM | TGI [11]: > 100 µM | TGI [12]: > 100 µM | TGI [13]: > 100 µM | TGI [14]: > 100 µM | TGI [15]: > 100 µM | TGI [16]: > 100 µM | TGI [17]: > 100 µM | TGI [18]: > 100 µM | TGI [19]: > 100 µM | TGI [20]: > 100 µM | TGI [21]: > 100 µM | TGI [22]: > 100 µM | TGI [24]: > 100 µM | TGI [25]: > 100 µM | TGI [26]: > 100 µM | TGI [27]: > 100 µM | TGI [28]: > 100 µM | TGI [29]: > 100 µM | TGI [30]: > 100 µM | TGI [31]: > 100 µM | TGI [32]: > 100 µM | TGI [33]: 25.2 µM | TGI [34]: > 100 µM | TGI [35]: > 100 µM | TGI [36]: > 100 µM | TGI [37]: > 100 µM | TGI [38]: > 100 µM | TGI [39]: > 100 µM | TGI [40]: > 100 µM | TGI [41]: > 100 µM | TGI [42]: > 100 µM | TGI [43]: > 100 µM | TGI [44]: > 100 µM | TGI [45]: > 100 µM | TGI [46]: > 100 µM | TGI [47]: > 100 µM | TGI [48]: > 100 µM | TGI [49]: > 100 µM | TGI [50]: > 100 µM | TGI [51]: > 100 µM | TGI [52]: > 100 µM | TGI [53]: > 100 µM | TGI [54]: > 100 µM | TGI [55]: > 100 µM | TGI [57]: > 100 µM | TGI [58]: > 100 µM

Oc1[nH]c2ccccc2c1C1=Nc2ccccc2/C1=N\OCCOC1OCC(O)C(O)C1O (configuration not stated)
TGI [1]: > 100 µM | TGI [2]: > 100 µM | TGI [3]: > 100 µM | TGI [4]: > 100 µM | TGI [5]: > 100 µM | TGI [6]: > 100 µM | TGI [7]: > 100 µM | TGI [8]: > 100 µM | TGI [9]: > 100 µM | TGI [10]: > 100 µM | TGI [11]: > 100 µM | TGI [12]: > 100 µM | TGI [13]: > 100 µM | TGI [14]: > 100 µM | TGI [15]: > 100 µM | TGI [16]: > 100 µM | TGI [17]: > 100 µM | TGI [18]: > 100 µM | TGI [19]: > 100 µM | TGI [20]: > 100 µM | TGI [21]: > 100 µM | TGI [22]: > 100 µM | TGI [23]: > 100 µM | TGI [24]: > 100 µM | TGI [25]: > 100 µM | TGI [26]: > 100 µM | TGI [27]: > 100 µM | TGI [28]: > 100 µM | TGI [29]: > 100 µM | TGI [30]: > 100 µM | TGI [31]: > 100 µM | TGI [32]: > 100 µM | TGI [33]: > 100 µM | TGI [34]: > 100 µM | TGI [35]: > 100 µM | TGI [36]: > 100 µM | TGI [37]: > 100 µM | TGI [38]: 7.99 µM | TGI [39]: > 100 µM | TGI [40]: > 100 µM | TGI [41]: > 100 µM | TGI [42]: > 100 µM | TGI [43]: > 100 µM | TGI [44]: > 100 µM | TGI [45]: > 100 µM | TGI [46]: > 100 µM | TGI [47]: > 100 µM | TGI [48]: > 100 µM | TGI [49]: > 100 µM | TGI [50]: > 100 µM | TGI [51]: > 100 µM | TGI [52]: > 100 µM | TGI [53]: > 100 µM | TGI [54]: > 100 µM | TGI [55]: > 100 µM | TGI [56]: > 100 µM | TGI [57]: > 100 µM | TGI [58]: > 100 µM
